Assay results taken from patent US10092584B2 (Achillion Pharmaceuticals, Inc., priority 2015, dated 2018).
pIC50: −log10 of the molar value. Where two headings read alike, the source gives them in different places.

Molecular target: T1, Human Factor D (Homo sapiens, UniProt P00746)
T1 construct: purified from human serum; purchased Complement Technology, Inc; host or cells: human serum
Test: Human Factor D assay (Example 8)
Assay type: biochemical
Details: Human Factor D 80 nM, substrate Z-L-Lys-SBzl
Description: Human Factor D (purified from human serum, Complement Technology, Inc.) at 80 nM final concentration was incubated with test compound at various concentrations for 5 minutes at room temperature in 50 mM Tris, 1M NaCl, pH 7.5. A synthetic substrate Z-L-Lys-SBzl and DTNB (Ellman's reagent) are added to final concentrations of 100 μM each. […] IC50 values are calculated by nonlinear regression of complement Factor D reaction rates as a function of test compound concentration.

[1] = Table 3, read-out: IC50 (Stars)

T1 sequence (P00746 26-253): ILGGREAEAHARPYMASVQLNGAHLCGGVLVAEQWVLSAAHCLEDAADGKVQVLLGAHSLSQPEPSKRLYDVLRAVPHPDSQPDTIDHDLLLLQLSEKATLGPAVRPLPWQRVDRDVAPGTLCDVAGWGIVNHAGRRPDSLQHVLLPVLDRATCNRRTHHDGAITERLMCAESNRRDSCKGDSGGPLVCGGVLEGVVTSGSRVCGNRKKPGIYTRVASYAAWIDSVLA

Compound: NC(=O)c1nn(CC(=O)N2C[C@@H](F)C[C@H]2C(=O)Nc2cccc(-c3ccccc3Cl)c2F)c2ccccc12 [Compound 352, 1-(2-((2S,4S)-2-((2′-chloro-2-fluoro-[1,1′-biphenyl]-3-yl)carbamoyl)-4-fluoropyrrolidin-1-yl)-2-oxoethyl)-1H-indazole-3-carboxamide]
- pIC50 [1]: > 6.00

Compound: NC(=O)c1nn(CC(=O)N2C[C@H](F)C[C@H]2C(=O)Nc2cccc(-c3cc(F)c(F)cc3Cl)c2F)c2cnccc12 [Compound 83, 1-(2-((2S,4R)-2-(2′-chloro-2,4′,5′-trifluorobiphenyl-3-ylcarbamoyl)-4-fluoropyrrolidin-1-yl)-2-oxoethyl)-1H-pyrazolo[3,4-c]pyridine-3-carboxamide]
- pIC50 (Table 1, read-out: IC50): > 6.00

Compound: CC(=O)c1nn(CC(=O)N2C[C@H](F)C[C@H]2C(=O)Nc2cccc(-c3ccc4c(c3)CCCN4)c2F)c2ccccc12 [Compound 449, (2S,4R)-1-(2-(3-Acetyl-1H-indazol-1-yl)acetyl)-4-fluoro-N-(2-fluoro-3-(1,2,3,4-tetrahydroquinolin-6-yl)phenyl)pyrrolidine-2-carboxamide]
- pIC50 [1]: > 6.00

Compound: CO[C@H]1[C@@H](C(=O)Nc2cccc(-c3ccccc3Cl)c2F)N(C(=O)Cn2nc(C(N)=O)c3ccccc32)C[C@@H]1F [Compound 289, 1-(2-((2S,3S,4S)-2-(2′-Chloro-2-fluorobiphenyl-3-ylcarbamoyl)-4-fluoro-3-methoxypyrrolidin-1-yl)-2-oxoethyl)-1H-indazole-3-carboxamide]
- pIC50 [1]: > 6.00

Compound: Cc1cc2c(s1)c(C(N)=O)nn2CC(=O)N1C[C@H](F)C[C@H]1C(=O)Nc1cccc(-c2ccccc2Cl)c1F [Compound 113, 1-(2-((2S,4R)-2-((2′-Chloro-2-fluoro-[1,1′-biphenyl]-3-yl)carbamoyl)-4-fluoropyrrolidin-1-yl)-2-oxoethyl)-5-methyl-1H-thieno[3,2-c]pyrazole-3-carboxamide]
- pIC50 (Table 1, read-out: IC50): > 6.00

Compound: CC(C)(C)OC(=O)N[C@@H](Cc1c[nH]c2ccccc12)C(=O)N1C[C@H](F)C[C@H]1C(=O)NCc1cccc(Cl)c1F [Compound 38, tert-butyl (S)-1-((2S,4R)-2-(3-chloro-2-fluorobenzylcarbamoyl)-4-fluoropyrrolidin-1-yl)-3-(1H-indol-3-yl)-1-oxopropan-2-ylcarbamate]
- pIC50 (Table 1, read-out: IC50): < 5.00

Compound: O=C(NCc1cccc(Cl)c1F)[C@@H]1C[C@@H](F)CN1C(=O)Cn1nc(P(=O)(O)O)c2ccncc21 [Compound 57]
- pIC50 (Table 1, read-out: IC50): < 5.00

Compound: CC(=O)c1cn(CC(=O)N2CC[C@@H](OCC3CC3)[C@H]2C(=O)NCc2cccc(Cl)c2F)c2ccccc12 [Compound 18, (2S,3R)-1-(2-(3-acetyl-1H-indol-1-yl)acetyl)-N-(3-chloro-2-fluorobenzyl)-3-(cyclopropylmethoxy) pyrrolidine-2-carboxamide]
- pIC50 (Table 1, read-out: IC50): > 6.00

Compound: CC(=O)n1cc(NC(=O)[C@@H]2C[C@H](F)CN2C(=O)NCc2cccc(Cl)c2F)c2ccccc21 [Compound 4, (2S,4S)-N2-(1-acetyl-1H-indol-3-yl)-N1-(3-chloro-2-fluorobenzyl)-4-fluoropyrrolidine-1,2-dicarboxamide]
- pIC50 (Table 1, read-out: IC50): < 5.00

Compound: COC(=O)c1cccc(NC(=O)[C@@H]2C[C@@H](F)CN2C(=O)Cn2nc(C(N)=O)c3ccccc32)c1F [Compound 345, methyl 3-((2S,4R)-1-(2-(3-carbamoyl-1H-indazol-1-yl)acetyl)-4-fluoropyrrolidine-2-carboxamido)-2-fluorobenzoate]
- pIC50 [1]: > 6.00

Compound: NS(=O)(=O)c1cn(CC(=O)N2C[C@H](F)C[C@H]2C(=O)NCc2cccc(Cl)c2F)c2ccccc12 [Compound 76, (2S,4R)-N-(3-chloro-2-fluorobenzyl)-4-fluoro-1-(2-(3-sulfamoyl-1H-indol-1-yl)acetyl)pyrrolidine-2-carboxamide]
- pIC50 (Table 1, read-out: IC50): > 6.00

Compound: NC(=O)c1nn(CC(=O)N2[C@@H]3C[C@@H]3C[C@H]2C(=O)NCc2cccc(Cl)c2F)c2ccsc12 [Compound 107, 1-(2-((1R,3S,5R)-3-(3-chloro-2-fluorobenzylcarbamoyl)-2-azabicyclo[3.1.0]hexan-2-yl)-2-oxoethyl)-1H-thieno[3,2-c]pyrazole-3-carboxamide]
- pIC50 (Table 1, read-out: IC50): > 6.00
